According to PMC5323398, “Restoration of Epithelial Sodium Channel Function by Synthetic Peptides in Pseudohypoaldosteronism Type 1B Mutants” (Frontiers in Pharmacology, 2017):
Changes are numbered by the printed parent chain.

Key:
[1] = target: human ENaC with the frameshift γV543fs (γ subunit of 597 residues, abnormal sequence after S542), co-expressed with WT α and β subunits (human) (UniProt P37088)
[2] = system: mock-transfected HEK-293 cells; assay: Whole-cell current of mock-transfected cells; assay type: cell-based, human
Description: Whole-cell currents were recorded from transfected HEK-293 cells with an Axopatch 200B amplifier, DigiData 1440A and pCLAMP10.2 software (Axon Instruments, Union City, CA) at room temperature (19–22°C) 48–72 h after transfection. Currents were recorded at 10 kHz and filtered at 5 kHz. The chamber contained 1 ml bath solution of the following composition (in mM): 145 NaCl, 2.7 KCl, 1.8 CaCl2, 2 MgCl2, 5.5 glucose, and 10 HEPES, adjusted to pH 7.4 with 1 M NaOH solution. The borosilicate glass patch pipettes (Harvard Apparatus, Holliston, MA) had resistances of 2–4 MΩ. The pipette solution contained (in mM): 135 potassium methane sulphonate, 10 KCl, 6 NaCl, 1Mg2ATP, 2 Na3ATP, 10 HEPES, and 0.5 EGTA, adjusted to pH 7.2 with 1 M KOH solution. Data acquisition and storage were processed directly to a PC. […] Differences were evaluated by one-way ANOVA followed by Tukey's post-hoc test.

αQ101K mutant hENaC = target: T1, αQ101K mutant hENaC (Homo sapiens, UniProt P37088+P51168+P51170, Q101K); assay: Whole-cell patch clamp, amiloride-sensitive Na+ current, αQ101K ENaC; assay type: cell-based; details: αQ101K activated by solnatide; 10 μM amiloride
T1 construct: expressed in transfected cells
T1 sequence (P37088 1-669 Q101K): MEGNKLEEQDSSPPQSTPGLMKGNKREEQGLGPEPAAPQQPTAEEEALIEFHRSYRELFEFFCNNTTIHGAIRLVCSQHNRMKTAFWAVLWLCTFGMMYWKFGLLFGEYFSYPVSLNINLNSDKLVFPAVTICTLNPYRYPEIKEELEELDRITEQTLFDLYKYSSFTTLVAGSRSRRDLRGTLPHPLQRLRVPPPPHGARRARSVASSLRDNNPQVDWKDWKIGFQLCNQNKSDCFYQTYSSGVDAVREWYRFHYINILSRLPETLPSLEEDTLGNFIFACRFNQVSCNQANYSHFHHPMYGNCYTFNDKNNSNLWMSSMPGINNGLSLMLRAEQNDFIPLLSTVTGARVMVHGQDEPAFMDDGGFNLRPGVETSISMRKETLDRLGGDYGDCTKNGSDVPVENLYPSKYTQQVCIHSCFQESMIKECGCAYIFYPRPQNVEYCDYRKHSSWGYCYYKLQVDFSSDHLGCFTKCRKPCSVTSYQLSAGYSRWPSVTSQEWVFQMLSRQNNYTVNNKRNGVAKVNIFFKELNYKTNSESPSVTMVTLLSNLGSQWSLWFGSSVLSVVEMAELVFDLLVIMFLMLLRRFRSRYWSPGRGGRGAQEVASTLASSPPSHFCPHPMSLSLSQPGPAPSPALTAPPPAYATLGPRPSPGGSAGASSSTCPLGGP
T1 sequence (P51168 1-640): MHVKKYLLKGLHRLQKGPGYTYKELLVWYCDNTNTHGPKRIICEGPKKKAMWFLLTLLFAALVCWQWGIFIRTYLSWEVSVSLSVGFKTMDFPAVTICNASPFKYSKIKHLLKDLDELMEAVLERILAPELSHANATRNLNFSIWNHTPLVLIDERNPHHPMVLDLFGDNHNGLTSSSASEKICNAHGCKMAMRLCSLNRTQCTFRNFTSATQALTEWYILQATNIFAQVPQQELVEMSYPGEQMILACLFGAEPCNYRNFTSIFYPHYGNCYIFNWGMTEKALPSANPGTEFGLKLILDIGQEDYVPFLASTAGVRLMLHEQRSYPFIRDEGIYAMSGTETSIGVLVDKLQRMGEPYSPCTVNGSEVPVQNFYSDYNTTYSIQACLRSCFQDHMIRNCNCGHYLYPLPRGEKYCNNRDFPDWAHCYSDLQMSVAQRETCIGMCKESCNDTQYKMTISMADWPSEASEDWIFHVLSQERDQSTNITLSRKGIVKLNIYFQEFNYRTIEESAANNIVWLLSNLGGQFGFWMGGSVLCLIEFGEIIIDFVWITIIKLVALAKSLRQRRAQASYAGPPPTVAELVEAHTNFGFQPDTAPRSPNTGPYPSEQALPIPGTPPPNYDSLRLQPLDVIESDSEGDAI
T1 sequence (P51170 1-649): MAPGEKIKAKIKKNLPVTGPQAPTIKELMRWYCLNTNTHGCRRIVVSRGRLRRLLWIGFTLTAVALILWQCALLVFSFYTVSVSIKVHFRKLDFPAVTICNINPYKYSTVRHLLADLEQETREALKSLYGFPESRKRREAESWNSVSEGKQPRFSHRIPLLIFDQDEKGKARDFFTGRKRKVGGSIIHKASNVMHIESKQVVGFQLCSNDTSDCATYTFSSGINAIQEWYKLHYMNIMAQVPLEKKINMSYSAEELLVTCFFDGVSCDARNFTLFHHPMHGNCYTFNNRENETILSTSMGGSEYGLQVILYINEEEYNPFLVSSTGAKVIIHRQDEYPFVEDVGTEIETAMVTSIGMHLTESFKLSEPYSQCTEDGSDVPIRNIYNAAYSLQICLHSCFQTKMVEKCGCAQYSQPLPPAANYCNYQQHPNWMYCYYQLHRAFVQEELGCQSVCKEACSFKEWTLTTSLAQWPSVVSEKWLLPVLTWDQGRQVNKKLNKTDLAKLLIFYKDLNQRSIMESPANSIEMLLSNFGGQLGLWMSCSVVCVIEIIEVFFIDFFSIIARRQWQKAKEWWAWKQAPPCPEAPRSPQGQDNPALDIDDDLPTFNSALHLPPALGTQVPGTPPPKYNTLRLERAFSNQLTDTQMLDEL
Description: (§1) Human embryonic kidney HEK-293 cells (ATCC no. CRL-1573) in passages 3–25, were seeded in Dulbecco's modified Eagle medium/F12 nutrient mixture Ham plus L-glutamine (DMEM/F-12; Gibco™ by Life Technologies, LifeTech Austria), supplemented with 10% fetal bovine serum (FBS; Gibco™ by Life Technologies, LifeTech Austria) and 1% penicillin-streptomycin (Sigma-Aldrich, Vienna, Austria). Cells were maintained at 37°C with 5% CO2 in a humidified incubator.
(§2) Point mutations and single base (insertions or) deletions, causing a frameshift, were introduced into cDNA encoding α-, β-, or γ-hENaC using QuikChange Lightning Site-Directed Mutagenesis Kit (Agilent Technologies, CA, USA). Pairs of mutagenic primers were designed individually with the Primer Design Program provided on the producer's website. The same bases were changed as reported in patients or at least resulting in the same protein products. The designed primers were ordered after checking their properties using the DNA Oligos Design Tool from Sigma-Aldrich, Vienna, Austria (Table 1).
(§3) HEK-293 cells were transfected 1 day after cell seeding using X-tremeGENE HP DNA transfection reagent (Roche Diagnostics, Mannheim, Germany) according to the manufacturer's protocol. […]

αG327C mutant hENaC = target: T2, αG327C mutant hENaC (Homo sapiens, UniProt P37088+P51168+P51170, G327C); assay: Whole-cell patch clamp, amiloride-sensitive Na+ current, αG327C ENaC; assay type: cell-based; details: αG327C activated by AP318; 10 μM amiloride
T2 construct: expressed in transfected cells
T2 sequence (P37088 1-669 G327C): T1 sequence (P37088 1-669 Q101K) with K101Q, G327C
T2 sequence (P51168 1-640): T1 sequence (P51168 1-640)
T2 sequence (P51170 1-649): T1 sequence (P51170 1-649)
Description: as §1, §2, §3

| EC50 of the increase of amiloride-sensitive Na+ current, whole-cell patch clamp at -100 mV, transfected HEK-293 cells, peptide 2-200 nM [1] | Compound | amiloride-sensitive or peptide-induced current ([2]; 10 μM amiloride or 200 nM peptide) | whole-cell current ([2]; 10 μM amiloride, control 11.28 ± 5.68 pA) | block of peptide-induced activation (αQ101K mutant hENaC) | block of peptide-induced activation (αG327C mutant hENaC) |
| --- | --- | --- | --- | --- | --- |
| 47.7 nM | AP318 (peptide) | – | – | – | – |
| – | N=C(N)NC(=O)c1nc(Cl)c(N)nc1N [amiloride] | about zero | 10.47 ± 6.23 pA | can be blocked by 10 μM amiloride | can be blocked by 10 μM amiloride |
